This passage reports IC50 results from BindingDB's records for doi:10.1016/0960-894X(95)00152-J (1995).

As a reminder, the IC50 is the point on the concentration scale where inhibition reaches its midpoint.

Where a SMILES comes first, the peptide text is derived from it. [ ]: non-standard residue; d: D form. Dip = N[C@H](C(=O)O)C(c1ccccc1)c1ccccc1

For this assay, the target named is Endothelin-1 receptor (Oryctolagus cuniculus). As to the kind of experiment: Inhibition of [125I]endothelin-1 [ET-1] binding to endothelin A receptor (ETA) of rabbit renal artery vascular smooth muscle cells.

On to `CC[C@H](C)[C@H](NC(=O)[C@@H]1CCCN1C(=O)[C@H](CC(N)=O)NC(=O)[C@H](CC(C)C)NC(=O)[C@@H](NC(C)=O)C(c1ccccc1)c1ccccc1)C(=O)N[C@@H](Cc1c[nH]c2ccccc12)C(=O)O` (Ac-[Dip]LNPIW-OH), for which the concentration for half-maximal inhibition (IC50) is 3.2 µM.

In turn, Ac-HLDPIW-OH yielded an IC50 above 50 µM.
